Test results published in patent US6689764B1, “Treatment of angiogenesis dependent conditions with dextrin sulphate” (priority 1999, dated 2004).

Columns and labels:
[1] = test system: AP5LV human colorectal xenograft; assay: AP5LV human colorectal xenograft in SCID mice; type: in vivo
Procedure: Dextrin sulphate, 10 mg/kg in 1ml icodextrin was administered every second day to two male SCID micc. Dosing continued for 14 days.
The cell line evaluated, AP5LV, is a variant of an established human colorectal cell line, derived originally from a patient's primary tumour. AP5LV cells have been selected for their ability to both colonise the lungs following intravenous injection and to spontaneously metastasise to the lungs following injection of the cells into the peritoneal muscle wall. AP5LV cells were maintained in vitro in RPMI 1640 culture medium (Gibco, Paisley, UK) containing 10% (v/v) heat inactivated foetal bovine serum (Sigma, Poole, UK) at 37° C. in 5% CO2 and humidified conditions. Cells from semi-confluent monolayers were harvested with 0.025% EDTA, washed twice in the culture medium described above, and re-suspended at 5×10^6/50 μl in sterile phosphate buffered saline, pH 7.4(PBS).
The mice were anaesthetised using Hypnorm(Roche)/Hyponovel(Janssen) and the cell suspension injected into the peritoneal muscle wall of 20 male SCD mice. Mice were electronically tagged for identification purposes (RS Biotech, Tracker), and randomly allocated to two experimental groups (see below). The treatment regime was initiated on day 1 and continued every other day until termination on day 38. […]

HUVEC cell line = assay: TCS Biologicals Human Angiogenesis Model (tubule formation); type: cell-based
Procedure: The effect of sulphated dextrin on vessel formation of the HUVEC cell line was performed by the use of the TCS Biologicals Human Angiogenesis Model. The assay is supplied as a growing culture of the HUVEC cell line together with culture matrix and additional human cells present (the exact nature of the cells is not known) at the earliest stages of tubule formation in a 24-well format. The positive control reagent was a standard stock solution of VEGF and the negative control was Suramin. After removing the well seals, the cultures were examined for cell morphology to confirm their viability.
Growth medium was provided with the kit and was used to make up the sulphated dextrin at concentrations ranging from 0-1000 μg/ml. The existing medium was aspirated from the wells and replaced with medium containing the dextrin sulphate concentrations in a 0.5ml volume. This was placed at 37° C., in a 5% CO2 containing atmosphere. This was repeated on days 4, 7 and 9.
Between days 7-11 cultures were fixed by the enclosed fixative and stained with the mouse monoclonal anti-PECAM-1 antibody at a 1:4000 dilution (present in blocking buffer). 0.5ml of diluted antibody was added per well and incubated for 60 minutes at 37° C. The secondary antibody (goat anti-mouse lgG alkaline phosphatase conjugate) was diluted 1:500 in blocking buffer and added to the wells after washing for 60 minutes at 37° C. After washing the plate the substrate was prepared; BCIP/NBT tablets were dissolved in distilled water and added to the wells. Following incubation for 5-10 minutes the wells were washed and were imaged using the Leica Qwin image analysis software package.

ECV304 cells = assay: In vitro proliferation, MTT uptake; type: cell-based, human
Procedure: (§1) SK-HEP-1 is a human liver adenocarcinoma with endothelial morphology and ECV304 is a human urinary bladder carcinoma with endothelial-like characteristics. Both cell lines were obtained from the ECACC. HUVEC was provided as a growing culture by TCS Biologicals.
(§2) Cells were grown and prepared in RPMI medium containing 10% FCS and 2mM glutamine. For the in vitro assays, cells were harvested with 0.025% EDTA, washed in the culture medium and plated into 96-well plates at 5×10^3 and 1×10^4 cells/well in a volume of 100 μl. After 24 hours, to allow for cell adherence, the medium was replaced with fresh medium containing dextrin sulphate at concentrations of 0, 1, 5, 10, 50, 100, 500, 1000 μg/ml. After 48 hours, proliferation was assessed by methyl thiazol tetrazolium (MTT) uptake as follows:
(§3) MTT (Sigma) was added to the wells in a 50 μl volume at a concentration of 1mg/ml. After 4 hours incubation the insoluble formazan crystals were solubilised by the addition of 75 μl DMSO/well and the absorbance measured at 550 nm.
(§4) Dextrin sulphate was assessed in two separate experiments. All experiments were performed with two different cell-seeding concentrations. […] To compare between cell lines and experiments, the level of inhibition achieved at the highest concentration evaluated (1000 μg/ml) was calculated as was the significance from the untreated control. (See FIG. 11).

SK-HEP-1 cells = assay: In vitro proliferation, MTT uptake; type: cell-based, human
Procedure: as §1, §2, §3, §4

HUVEC cells = conditions: in vitro, Thornton et al 1999; cited from earlier work
[2] = test system: human placental blood vessels; assay: Placental blood vessel in fibrin clot in vitro angiogenesis assay; type: cell-based; conditions: 100 μg/ml, up to day 22
Procedure: Compounds were tested at a final concentration of 100 μg/ml. The degree of new vessel formation was quantified blind twice a week using a visual analog scale in which 0=no growth, 1=minimal new vessel formation, 2=significant new vessel formation, and 3=dense new vessel formation. An angiogenesis score was derived from each count by dividing the total score (i.e. the sum of all the wells) by the maximum possible score and then expressing the result as a percentage. This graph is representative of 3 experiments with a total of 20 wells/plate/experiment for each compound tested.
Blood vessels (approximately 1-2 mm diameter) were excised from the apical surface of human placentas within 6 h of an elective Caesarean birth. Use of the placentas for these studies were approved by the Ethics Committee of Hammersmith Hospitals Trust, London. The blood vessels were placed in Hank's balanced salt solution and cut into 1-2 mm fragments using fine dissecting forceps and iridectomy scissors. Residual clots were removed and the blood vessels then soaked in Hank's balanced salt solution.
The effect of each compound on new blood vessel formulation was determined by culturing the blood vessels within a fibrin clot in 24-well tissue culture plates. Thirty μl of bovine thrombin (50 NIH U/ml in 0.15 M sodium chloride) was added to each well followed by 1 ml/well of 3 mg/ml bovine fibrinogen in Medium 199. The thrombin and fibrinogen were rapidly mixed and a blood vessel fragment placed in the centre of the well. Fibrin gel formation occurred rapidly and left the vessel suspended within the gel. One ml/well of Medium 199 supplemented with 20% foetal calf serum, 250 IU/ml penicillin and 250 U/ml streptomycin was then added to each well. ε-arnino-n-caproic acid was also added (300 μg/ml) for the first 4 days and twice weekly thereafter (50 μg/ml) in order to prevent dissolution of the fibrin clot. The vessels were cultured at 37° C. in a humidified incubator for 25 days with the media being changed twice weekly.
The degree of new vessel formation was quantified blind twice a week by three different observers using a visual analogue scale in which 0=no growth, 1=very little new vessel formation, 2=significant new vessel formation and 3=dense new vessel formation. An angiogenesis score was derived from the counts undertaken for each well by dividing the total score by the maximum score possible and then expressing the result as a percentage. On each of 3 separate occasions, each compound was tested in 20 replicate wells. […] Some of the fibrin clots were fixed overnight in 10% formalin, paraffin embedded, sectioned for histology and then stained for the endothelial cell markers Factor VIII and CD31. Results are expressed as the mean±sem. A students t-test was used to determine the level of significance.

dextrin sulphate
toxicity ([1]; 10 mg/kg i.p. every second day, SCID mice): no toxicity
reduction in final tumour weight ([1]; 10 mg/kg in 4% Icodextrin i.p. every second day, termination day 38, SCID mice): 28%
branch point number, % of control (HUVEC cell line; 1 μg/ml): 120%
tubule branch points, reduction (HUVEC cell line; 1 μg/ml): 31%
branch point number, % of control (HUVEC cell line; 5 μg/ml): 115%
branch point number, inhibition (HUVEC cell line; 50 μg/ml): 26%
branch point number, inhibition (HUVEC cell line; 100 μg/ml): 48%
tubule number, inhibition (HUVEC cell line; 100 μg/ml): 48%
branch point number, inhibition (HUVEC cell line; 500 μg/ml): 53%
branch point number, inhibition (HUVEC cell line; 1000 μg/ml): 68%
tubule branch points, reduction (HUVEC cell line; 1000 μg/ml): 93%
tubule number, inhibition (HUVEC cell line; 1000 μg/ml): 68%
branch point number (HUVEC cell line; all concentrations evaluated (1-1000 μg/ml)): inhibitory effect
tubule number (HUVEC cell line; lower concentrations): low but significant stimulation
inhibition of in vitro growth (ECV304 cells; ECV304, 0-1000 μg/ml, 48 hours): moderate levels of inhibition
level of inhibition of growth (ECV304 cells; ECV304, 1000 μg/ml, both cell concentrations, two experiments): 11-33%
concentrations at which inhibitory effects were seen (ECV304 cells; ECV304, MTT assay): > 100 µg/mL
inhibition of in vitro growth (SK-HEP-1 cells; SK-HEP-1, 0-1000 μg/ml, 48 hours): moderate levels of inhibition
level of inhibition of growth (SK-HEP-1 cells; SK-HEP-1, 1000 μg/ml, lower cell concentration): ~65%
concentrations at which inhibitory effects were seen (SK-HEP-1 cells; SK-HEP-1, MTT assay): > 100 µg/mL
level of inhibition of growth (SK-HEP-1 cells; SK-HEP-1, higher cell concentration): not as great
proliferation of HUVEC cells (HUVEC cells): not to be directly inhibited
new vessel formation compared to media alone [2]: inhibits new vessel formation
